Data from US9096646B2, “CXCR4 receptor compounds” (priority 2008, dated 2015).
Where two headings read alike, the source gives them in different places. Square brackets hold non-standard residues; d marks the D form. Peptide text beside a SMILES is read from it. * marks the point of attachment. Palmitoyl = CCCCCCCCCCCCCCCC(=O)*

Legend:
Assay type in all cases: cell-based
CXCR4 [1] = molecular target: T1, CXCR4 (Homo sapiens, UniProt P61073); assay: Chemotaxis assay using SUP B-15 cells; set-up: A similar procedure was followed for chemotaxis using SUP B-15 cells; endogenous in cells; host or cells: SUP B-15 cells; conditions: SUP-B15, Table 18, i1 loop, SUP B-15 cells, drug conc 1.0 uM
Excerpt: Chemotaxis assays were utilized to determine the effect of compound on the directed migration of cells in response to chemokine. Cells that express a receptor of interest were placed in the upper chamber of a Transwell chemotaxis plate (Corning) and allowed to migrate through a polycarbonate membrane to a lower chamber containing the appropriate receptor-specific ligand. To test for antagonist or potentiating activity, cells were mixed with the desired concentration of compound prior to addition to the upper chamber. Conversely, agonist activity was determined by adding compound in the bottom chamber only without endogenous chemokine. The effect of compound is quantified by several parameters, including the extent of maximum response, the shift of agonist dose-response curves, and the area under the curve.
To measure the CXCR4-dependent migration of cells, the appropriate concentration of CXCL12 (SDF1a) or test compound was diluted in phenol red-free RMPI-1640/20 mM HEPES/0.5% BSA buffer and placed in the bottom chamber of a transwell apparatus. CCRF-CEM cells, a human T-cell ALL line that endogenously expresses CXCR4, were washed twice in buffer and resuspended at 133,000 cells/ml. A 75 μl sample of this suspension is mixed with the test compound of interest and placed in the upper chamber of a 5-micron transwell apparatus.
To initiate cell migration, the assembled transwell plate was placed in a 37° C., […] incubator for a specified time interval, typically between 30 and 120 minutes. After incubation, the unit was disassembled and the lower chamber placed at −80° C. overnight to facilitate lysis of cells. To quantify migrated cells, plates were thawed at 37° C. in a humidified chamber, and then a sample volume was removed from each well and mixed with an equal volume of CyQuant (Invitrogen) working solution in opaque plates. The fluorescence intensity of each well represents the DNA content and is directly proportional to cell number. Each sample was typically run in duplicate or triplicate and each plate included two separate negative controls. The plate background control, which included no cells in the upper chamber, was subtracted from all values. The negative control had no agonist added in the lower chamber, and served to establish the baseline for random migration. A similar procedure was followed for chemotaxis using SUP B-15 cells.

CXCR4 [2] = molecular target: T1, CXCR4; assay: Chemotaxis assay, effect on SDF1-a (CXCL12) induced migration of CCRF-CEM cells; set-up: a human T-cell ALL line that endogenously expresses CXCR4; endogenous in cells; host or cells: CCRF-CEM (human T-cell ALL line); conditions: CCRF-CEM, Table 18, i1 loop, CEM cells; for activity at 0.03 µM: drug conc 0.03 uM; for activity at 0.1 µM: drug conc 0.1 uM; for activity at 0.3 µM: drug conc 0.3 uM; for activity at 1 µM: drug conc 1.0 uM; for activity at 3 µM: drug conc 3.0 uM
Method: To initiate cell migration, the assembled transwell plate was placed in a 37° C., 0.5% CO2 incubator for a specified time interval, typically between 30 and 120 minutes. After incubation, the unit was disassembled and the lower chamber placed at −80° C. overnight to facilitate lysis of cells. To quantify migrated cells, plates were thawed at 37° C. in a humidified chamber, and then a sample volume was removed from each well and mixed with an equal volume of CyQuant (Invitrogen) working solution in opaque plates. The fluorescence intensity of each well represents the DNA content and is directly proportional to cell number. […] The plate background control, which included no cells in the upper chamber, was subtracted from all values.

CXCR4 [3] = molecular target: T1, CXCR4; assay: Calcium flux assay in CCRF-CEM cells (SDF-1α activation of CXCR4; intrinsic agonist activity); set-up: a human T-cell ALL line that endogenously expresses CXCR4; endogenous in cells; host or cells: CCRF-CEM (human T-cell ALL line); conditions: SDF-1α activation of CXCR4, Calcium-4 dye, read-out: IC50 (nM), CXCR4 i1 loop compound Calcium Flux Data
Excerpt: Calcium Flux Assay is one of the most popular cell-based GPCR functional assays. It most often uses calcium sensing fluorescent dyes such as fura2 AM, fluo-4 and Calcium-4 to measure changes in intracellular calcium concentration. It is used mainly to detect GPCR signaling via Gaq subunit. Activation of these Gq-coupled GPCRs leads to activation of phospholipase C, which subsequently leads to increase in inositol phosphate production. IP3 receptors on endoplasmic reticulum sense the change then release calcium into cytoplasm. Intracellular calcium binding to the fluorescent dyes can be detected by instruments that quantify fluorescent intensities, such as FLIPR Tetra, Flexstation (MDS) and FDSS (Hamamatsu). In additional to assess Gq-couple receptor signaling, calcium flux assay can also be used to study Gs and Gi couple receptors by co-expressing CNG (cyclic nucleotide gated calcium channel) or chimeric G-proteins (Gqi5, Gsi5 for example). Activation of some Gi-coupled receptors can also be detected by calcium flux assay via Gβγmediated phospholipase C activation.
The calcium flux assay was used to assess SDF-1α activation of CXCR4 in CCRF-CEM cells (human T lymphoblasts from acute lymphoblastic leukemia). CCRF-CEM cells were seeded into 96-well black plates with clear bottom at 200K/well in RPMI 1640 media with 20 mM HEPES containing 0.2% BSA. After dye loading by incubating with Calcium-4 dye at 37° C. for 1 hour, cell plates were read at 37° C. using the Flexstation 3 workstation. The addition of test compounds or reference antagonists was accomplished either by manual pipetting or by liquid handling using the Flexstation. The latter allows the assessment of intrinsic agonist activity of the test compounds by measuring initial changes in fluorescent intensity. After incubation of 24 minutes at 37° C., SDF-1α was added and receptor activation was assessed by measuring changes in fluorescent intensity using the Flexstation.

T1 sequence (P61073 whole entry): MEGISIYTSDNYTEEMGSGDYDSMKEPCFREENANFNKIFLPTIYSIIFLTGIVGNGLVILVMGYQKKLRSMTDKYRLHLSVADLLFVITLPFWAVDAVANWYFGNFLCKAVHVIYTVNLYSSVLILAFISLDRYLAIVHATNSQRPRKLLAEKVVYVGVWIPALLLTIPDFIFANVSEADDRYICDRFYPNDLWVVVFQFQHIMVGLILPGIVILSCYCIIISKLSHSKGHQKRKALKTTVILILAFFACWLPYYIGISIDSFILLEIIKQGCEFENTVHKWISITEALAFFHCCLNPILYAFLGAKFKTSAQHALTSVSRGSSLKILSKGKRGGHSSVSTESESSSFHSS

SMILES	activity at 1 µM (CXCR4 [1]; read-out: AUC (% of)) [%]	activity at 1 µM (CXCR4 [1]; read-out: Max (% of)) [%]	activity at 1 µM (CXCR4 [2]; read-out: Max (% of)) [%]	IC50 (CXCR4 [3]) [nM]	activity at 1 µM (CXCR4 [2]; read-out: AUC (% of)) [%]	other results
CCCCCCCCCCCCCCCC(=O)N[C@@H](CCCCN)C(=O)N[C@@H](CCCCN)C(=O)N[C@@H](CC(C)C)C(=O)N[C@@H](CCCNC(=N)N)C(=O)N[C@@H](CO)C(=O)N[C@@H](CCSC)C(=O)N[C@H](C(=O)N[C@@H](CC(=O)O)C(=O)N[C@@H](CCCCN)C(=O)N[C@@H](Cc1ccc(O)cc1)C(=O)N[C@@H](CCCNC(=N)N)C(=O)N[C@@H](CC(C)C)C(=O)N[C@@H](Cc1cnc[nH]1)C(N)=O)[C@@H](C)O [Compound 43] (Palmitoyl-KKLRSMTDKYRLH-NH2)	70.8	55.8	78.9			activity at 0.01 µM (CXCR4 [2]; drug conc 0.01 uM, read-out: AUC (% of)): 110%; activity at 0.03 µM (CXCR4 [2]; read-out: AUC (% of)): 110%; activity at 0.03 µM (CXCR4 [2]; read-out: Max (% of)): 92.7%; activity at 0.1 µM (CXCR4 [2]; read-out: AUC (% of)): 108%; activity at 0.1 µM (CXCR4 [2]; read-out: Max (% of)): 93.6%; activity at 0.3 µM (CXCR4 [2]; read-out: AUC (% of)): 97.9%; activity at 0.3 µM (CXCR4 [2]; read-out: Max (% of)): 84.5%; activity at 3 µM (CXCR4 [2]; read-out: AUC (% of)): 79.4%; activity at 3 µM (CXCR4 [2]; read-out: Max (% of)): 76.3%
CCCCCCCCCCCCCCCC(=O)N[C@@H](CCCCN)C(=O)N[C@@H](CCCCN)C(=O)N[C@@H](CC(C)C)C(=O)N[C@@H](CCCNC(=N)N)C(=O)N[C@@H](CO)C(=O)N[C@@H](CCSC)C(=O)N[C@H](C(=O)N[C@@H](CC(=O)O)C(=O)N[C@@H](CCCCN)C(=O)N[C@@H](Cc1ccc(O)cc1)C(=O)N[C@@H](CCCNC(=N)N)C(=O)N[C@@H](CC(C)C)C(=O)N[C@@H](Cc1cnc[nH]1)C(=O)N[C@@H](CC(C)C)C(=O)N[C@@H](CO)C(=O)N[C@H](C(N)=O)C(C)C)[C@@H](C)O [Compound 41] (Palmitoyl-KKLRSMTDKYRLHLSV-NH2)	51.7	41.7	76.8		66.7	
CCCCCCCCCCCCCCCC(=O)N[C@H](C(=O)N[C@@H](CCSC)C(=O)NCC(=O)N[C@@H](Cc1ccc(O)cc1)C(=O)N[C@@H](CCC(N)=O)C(=O)N[C@@H](CCCCN)C(=O)N[C@@H](CCCCN)C(=O)N[C@@H](CC(C)C)C(=O)N[C@@H](CCCNC(=N)N)C(=O)N[C@@H](CO)C(=O)N[C@@H](CCSC)C(=O)N[C@H](C(=O)N[C@@H](CC(=O)O)C(N)=O)[C@@H](C)O)C(C)C [Compound 35] (Palmitoyl-VMGYQKKLRSMTD-NH2)	31.7	49.3	57		57.9	
CCCCCCCCCCCCCCCC(=O)N[C@@H](CCSC)C(=O)NCC(=O)N[C@@H](Cc1ccc(O)cc1)C(=O)N[C@@H](CCC(N)=O)C(=O)N[C@@H](CCCCN)C(=O)N[C@@H](CCCCN)C(=O)N[C@@H](CC(C)C)C(=O)N[C@@H](CCCNC(=N)N)C(=O)N[C@@H](CO)C(=O)N[C@@H](CCSC)C(=O)N[C@H](C(=O)N[C@@H](CC(=O)O)C(=O)N[C@@H](CCCCN)C(=O)N[C@@H](Cc1ccc(O)cc1)C(N)=O)[C@@H](C)O [Compound 37] (Palmitoyl-MGYQKKLRSMTDKY-NH2)	63.5	91.1	97.8		92.3	
CCCCCCCCCCCCCCCC(=O)N[C@@H](CCCCN)C(=O)N[C@@H](CCCCN)C(=O)N[C@@H](CC(C)C)C(=O)N[C@@H](CCCNC(=N)N)C(=O)N[C@@H](CO)C(=O)N[C@@H](CCSC)C(=O)N[C@H](C(=O)N[C@@H](CC(=O)O)C(=O)N[C@@H](CCCCN)C(=O)N[C@@H](Cc1ccc(O)cc1)C(=O)N[C@@H](CCCNC(=N)N)C(=O)N[C@@H](CC(C)C)C(N)=O)[C@@H](C)O [Compound 44, Pal-KKLRSMTDKYRL-amide] (Palmitoyl-KKLRSMTDKYRL-NH2)	25.9	31.5				

More lines, main results first:

activity at 1 µM (CXCR4 [1]; read-out: AUC (% of)) [%]	activity at 1 µM (CXCR4 [1]; read-out: Max (% of)) [%]	activity at 1 µM (CXCR4 [2]; read-out: Max (% of)) [%]	IC50 (CXCR4 [3]) [nM]	activity at 1 µM (CXCR4 [2]; read-out: AUC (% of)) [%]	SMILES	other results
			> 10000		CCCCCCCCCCCCCCCC(=O)N[C@@H](CCSC)C(=O)NCC(=O)N[C@@H](Cc1ccc(O)cc1)C(=O)N[C@@H](CCC(N)=O)C(=O)N[C@@H](CCCCN)C(=O)N[C@@H](CCCCN)C(=O)N[C@@H](CC(C)C)C(=O)N[C@@H](CCCNC(=N)N)C(=O)N[C@@H](CO)C(=O)N[C@@H](CCSC)C(=O)N[C@H](C(=O)N[C@@H](CC(=O)O)C(=O)N[C@@H](CCCCN)C(=O)N[C@@H](Cc1ccc(O)cc1)C(=O)N[C@@H](CCCNC(=N)N)C(=O)N[C@H](CC(C)C)C(N)=O)[C@@H](C)O [Compound 159] (Palmitoyl-MGYQKKLRSMTDKYR[dL]-NH2)	
87.2	82.9	116		69.7	CCCCCCCCCCCCCCCC(=O)N[C@@H](CCCCN)C(=O)N[C@@H](CCCCN)C(=O)N[C@@H](CC(C)C)C(=O)N[C@@H](CCCNC(=N)N)C(=O)N[C@@H](CO)C(=O)N[C@@H](CCSC)C(=O)N[C@H](C(=O)N[C@@H](CC(=O)O)C(=O)N[C@@H](CCCCN)C(=O)N[C@@H](Cc1ccc(O)cc1)C(N)=O)[C@@H](C)O [Compound 46] (Palmitoyl-KKLRSMTDKY-NH2)	
			> 10000		CCCCCCCCCCCCCCCC(=O)N[C@@H](CCSC)C(=O)NCC(=O)N[C@@H](Cc1ccc(O)cc1)C(=O)N[C@@H](CCC(N)=O)C(=O)N[C@H](CCCCN)C(=O)N[C@@H](CCCCN)C(=O)N[C@@H](CC(C)C)C(=O)N[C@@H](CCCNC(=N)N)C(=O)N[C@@H](CO)C(=O)N[C@@H](CCSC)C(=O)N[C@H](C(=O)N[C@@H](CC(=O)O)C(=O)N[C@@H](CCCCN)C(=O)N[C@@H](C)C(=O)N[C@@H](CCCNC(=N)N)C(=O)N[C@@H](CC(C)C)C(N)=O)[C@@H](C)O [Compound 151] (Palmitoyl-MGYQ[dK]KLRSMTDKARL-NH2)	
			> 10000		CCCCCCCCCCCCCCCC(=O)N[C@@H](CCSC)C(=O)NCC(=O)N[C@@H](Cc1ccc(O)cc1)C(=O)N[C@@H](CCC(N)=O)C(=O)N[C@H](CCCCN)C(=O)N[C@@H](CCCCN)C(=O)N[C@@H](CC(C)C)C(=O)N[C@@H](CCCNC(=N)N)C(=O)N[C@@H](CO)C(=O)N[C@@H](CCSC)C(=O)N[C@H](C(=O)N[C@@H](CC(=O)O)C(=O)N[C@@H](CCCCN)C(=O)N[C@@H](Cc1ccc(O)cc1)C(=O)N[C@@H](C)C(=O)N[C@@H](CC(C)C)C(N)=O)[C@@H](C)O [Compound 152] (Palmitoyl-MGYQ[dK]KLRSMTDKYAL-NH2)	
